Data set [1] deals with T1, Lin28_ZKD (Homo sapiens, UniProt Q9H9Z2).
T1 construct: construct encoding amino acids 124–186 of human Lin28; His6; made in house; host or cells: Escherichia coli BL21 (DE3) Codon+ (RIL)
T1 sequence (Q9H9Z2 124-186): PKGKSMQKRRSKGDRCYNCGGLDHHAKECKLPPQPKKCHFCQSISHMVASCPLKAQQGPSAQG
As to the kind of experiment: Fluorescence polarization titration, Lin28_ZKD binding to preE-let-7f-1-FAM. The settings on record: Lin28_ZKD titrated into FAM-labeled preE-let-7, 10 nM; 10 mM HEPES, 150 mM NaCl, pH 7.4; read-out: K D of the Lin28_ZKD/let7FAM interaction. As for the experimental part: Fluorescence Polarization Assay. Fluorescence polarization titration assay was carried out by titrating Lin28_ZKD protein into FAM-labeled PreE-let-7 at a 10 nM final concentration and buffer (10 mM HEPES, 150 mM NaCl, 10 µM ZiCl2, pH 7,4). The assay plate was briefly vortexed, and air bubbles were removed by spinning at 1000 rpm. The fluorescence anisotropy was measured on a Spectra Max Paradigm multimode plate reader (Molecular Devices). […]
(§1) Fluorescence polarization readings were transferred into Prism 7.0 (GraphPad). All fluorescence polarization assays were repeated at least three times and the anisotropy values fitted using GraphPad Prism software using 1:1 binding/inhibition model. […]
Background: In fluorescence polarisation assays a small probe gives low polarisation when free and higher when bound to something large.

Data set [2] concerns the target T1, Lin28_ZKD. As to the kind of experiment: Fluorescence polarization competition assay (displacement of let7FAM from Lin28_ZKD). The class given is binding. The settings on record: competition FP, conjugate vs parent. As for the experimental part: Fluorescence Polarization Assay. Fluorescence polarization titration assay was carried out by titrating Lin28_ZKD protein into FAM-labeled PreE-let-7 at a 10 nM final concentration and buffer (10 mM HEPES, 150 mM NaCl, 10 µM ZiCl2, pH 7,4). The assay plate was briefly vortexed, and air bubbles were removed by spinning at 1000 rpm. The fluorescence anisotropy was measured on a Spectra Max Paradigm multimode plate reader (Molecular Devices). The fluorescence polarization competition […]
preE-let-7. The concentration of Lin28_ ZKD is kept at 40 nM, a value in the range of the dissociation constant of Lin28_ZKD and preE-let-7 determined through fluorescence polarization titration assay, whereas preE-let-7 concentration is kept constant at 10 nM. FP competitive binding assays were performed on 384-well plates (#3575, Corning) with a total well volume of 10 µL.
as §1

Another data set relates to myc-Lin28A. The experiment in a line: Ubiquitination assay of myc-Lin28A in 22Rv1 cells. The class given is cell-based. The settings on record: HA-Ub co-transfected, 500 nM, 48 h, anti-HA western blot after cMyc IP. On the procedure:
(§2) Next, we investigated the ability of ORN3P1 and ORN7P1 to mediate ubiquitination of Lin28 in cells, using a previously described protocol. ^[32] Cells from the prostate cancer cell line 22RV1, which express very low levels of Lin28, were co‐transfected with two plasmids expressing pCMV‐myc‐Lin28A and HA‐tagged polyubiquitin (HA‐Ub).
(§3) After 48 h of incubation with ORN3P1 and ORN7P1, the tagged Lin28 (and the control QKI) was immunoprecipitated using an anti‐Myc antibody. The isolated protein was then analyzed by western blotting using the anti‐HA and anti‐c‐Myc antibodies. Consistent with other previously described PROTAC reagents,[ ^32 , ^33 ]
(§4) The protein extracts (12-17 µg) were run on a 4-20% SDS-PAGE and transferred on a nitrocellulose blotting membrane 0.22 µm (GE Healthcare) using the Trans-Blot transfer device (Biorad). Membranes were blocked with 5% milk and incubated with the primary antibody overnight at 4 °C. Membranes were washed with 0.05% PBS-T and reacted with the secondary antibody for 1 h in 5% milk. The proteins were detected using the anti-lin28a antibody (Cell Signaling technology, D9F5), anti-lin28b antibody (Cell Signaling technology, 4196S), anti-rbfox1 (NovusBio, NBP2-13169SS), at 1:1000 and anti-hrnp c antibody […]
(§5) (Abcam, AB133607) at 1:10000 dilutions. […]
(§6) on a ChemiDoc MP imager (Biorad). The intensity of the signal was quantified using the ImageJ-Fiji software. […]

In a further data set the test system is QKI (pDEST-Myc-QKI). As to the kind of experiment: Ubiquitination assay of Myc-QKI (negative control RBP) in 22Rv1 cells. It is filed as cell-based. The settings on record: pDEST-Myc-QKI and HA-Ub, 500 nM, 48 h. As for the experimental part:
as §2, §3, §4, §5, §6

Data set [3] concerns Lin28A. The experiment in a line: Pull-down RNA ELISA, gymnosis, anti-Lin28A. The class given is cell-based, human. Conditions: 3'-biotin conjugates, K562 cells, 2 µM, 24 h; streptavidin plate; vs mock or FUS antibody.
Description: Humans express two paralogs of the protein, LIN28 (Lin28A) and LIN28B (Lin28B), that play key roles in development, metabolism, and pluripotency. ^[34] Lin28 proteins are abundantly expressed during embryonic development, as well as in several tumors and tumor‐derived cell lines. ^[35] […] In order to confirm that RNA‐PROTACs bind to endogenous Lin28 in cells, we performed a pull‐down RNA ELISA assay that we have previously described. ^[36] Thus, we conjugated a biotin group to the 3′ ends of ORN3P1 and ORN7P1 and added these reagents separately on to myelogenous leukemia K562 cells. We incubated lysates from treated cells on streptavidin‐coated plates so as to capture the RNA‐PROTACs present in the cell lysates. We then assayed for the presence of Lin28A in the plates using an anti‐Lin28A antibody and a negative control anti‐FUS antibody. […]
The protein extracts (12-17 µg) were run on a 4-20% SDS-PAGE and transferred on a nitrocellulose blotting membrane 0.22 µm (GE Healthcare) using the Trans-Blot transfer device (Biorad). […] The proteins were detected using the anti-lin28a antibody (Cell Signaling technology, D9F5), anti-lin28b antibody (Cell Signaling technology, 4196S), anti-rbfox1 (NovusBio, NBP2-13169SS), at 1:1000 and anti-hrnp c antibody […]
as §6

For data set [4], the system named is Lin28A. The experiment in a line: Western blot of Lin28A in NT2/D1 cells. It is filed as cell-based, human. The settings on record: 2 μM, three independent experiments. The source says:
Finally, we tested RNA‐PROTACs for their ability to degrade their target in two cell lines: the embryonic NT2/D1 cell line, which expresses high levels of Lin28A, ^[13a] and K562 cells which express Lin28A and Lin28B. […] Finally, we co‐treated K562 cells with ORN3P1 and MG132, a reversible inhibitor of the 26S proteasome. […] In order to explore the versatility of RNA‐PROTACs with non peptide‐based VHL ligands, we conjugated small‐molecule VH032 ^[38] to ORN3 via an amino linker to yield ORN3VH032 (Figure S1). […]

This note sets out measurements from publication PMC7898822, “RNA‐PROTACs: Degraders of RNA‐Binding Proteins” (Angewandte Chemie (International Ed. in English), 2020).

pKd: −log10 of the molar value. Oligonucleotides are written 5' to 3', each unit as a sugar letter and its base; * is a phosphorothioate linkage, no mark a phosphodiester; rarer units and linkages stand in square brackets, end groups in braces. Plain capitals give the bases only. {FAM} = fluorescein (FAM) label; r = 2'-OH (RNA)

Regarding “Let7FAM: FAM_GGGGUAGUGAUUU UACCCUGUUCAGGAGAU, PO-RNA; fluorescent probe ({FAM}-rGrGrGrGrUrArGrUrGrArUrUrUrUrArCrCrCrUrGrUrUrCrArGrGrArGrArU)”, in the data set with Lin28_ZKD [1], the pKd was 7.57.

On to `CC[C@H](C)[C@H](NC(=O)[C@H](Cc1ccc(O)cc1)NC(=O)[C@@H]1C[C@@H](O)CN1C(=O)[C@H](C)NC(=O)[C@H](CC(C)C)NC(=O)CCCCCNC(=O)[C@@H](N)CSC1CC(=O)N(CCOP(=O)(S)OC[C@H]2O[C@@H](n3cnc4c(N)ncnc43)[C@H](OCCOC)[C@@H]2OP(=O)(S)OC[C@H]2O[C@@H](n3cnc4c(=O)[nH]c(N)nc43)[C@H](OCCOC)[C@@H]2OP(=O)(S)OC[C@H]2O[C@@H](n3cnc4c(=O)[nH]c(N)nc43)[C@H](OCCOC)[C@@H]2OP(=O)(S)OC[C@H]2O[C@@H](n3cnc4c(N)ncnc43)[C@H](OCCOC)[C@@H]2OP(=O)(S)OC[C@H]2O[C@@H](n3cnc4c(=O)[nH]c(N)nc43)[C@H](OCCOC)[C@@H]2OP(=O)(S)OC[C@H]2O[C@@H](n3cnc4c(N)ncnc43)[C@H](OCCOC)[C@@H]2OP(=O)(S)OC[C@H]2O[C@@H](n3cc(C)c(=O)[nH]c3=O)[C@H](OCCOC)[C@@H]2OP(=O)(S)OC[C@H]2O[C@@H](n3cnc4c(N)ncnc43)[C@H](OCCOC)[C@@H]2OP(=O)(S)OC[C@H]2O[C@@H](n3cnc4c(N)ncnc43)[C@H](OCCOC)[C@@H]2OP(=O)(S)OC[C@H]2O[C@@H](n3cc(C)c(N)nc3=O)[C@H](OCCOC)[C@@H]2OP(=O)(S)OC[C@H]2O[C@@H](n3cc(C)c(=O)[nH]c3=O)[C@H](OCCOC)[C@@H]2O)C1=O)C(=O)O` (stereo partly drawn) [ORN7P1], for which the “competition for Lin28_ZKD relative to parent unconjugated oligonucleotides” value on Lin28_ZKD [2] is reported as “competed slightly more strongly”. The “ubiquitination of myc-Lin28A” value with myc-Lin28A was “showed a smear on the gel towards higher molecular weight”. Moreover, in the data set on QKI (pDEST-Myc-QKI), the “ubiquitination of QKI” value is “showed no such effects”. Further, in the data set with Lin28A [3], the Lin28A pull-down signal entry is “strong signal for Lin28A protein”. Besides, the “reduction of Lin28A” value in the data set with Lin28A [4] is recorded as roughly 50%.
